System: male dogs (TOYO Beagle)
Assay: Intraocular pressure lowering action after instillation in dogs
Type: in vivo, dog (TOYO Beagle)
Conditions: for Time after administration exhibiting maximum intraocular pressure lowering action: 30 μL instillation, measured at 2, 4, 6, 8, 24 h; for Intraocular pressure lowering width 24 hours after administration / Maximum intraocular pressure lowering width: mean ± S.E., n=8, 30 μL instillation, Compound A 3 μg/mL, timolol 0.5% ophthalmic solution; for Maximum intraocular pressure lowering width: maximum of average lowering width over 2, 4, 6, 8, 24 h
Description: Compound A and a β-blocker were used as test substances. Compound A was prepared in a 3 μg/mL solution using a vehicle (an aqueous solution containing 0.3 w/v % sodium citrate, 0.5 w/v % polysorbate 80, and 0.8 w/v % sodium chloride). Timolol (trade name: Timoptol (registered trademark) 0.5% ophthalmic solution, Santen Pharmaceutical Co., Ltd.) was used as a β-blocker.
Approximately one hour before administering the vehicle and a test substance to male dogs (TOYO Beagle, 16 to 42 months old at start of use) that have been sufficiently acclimated in advance, intraocular pressure in both eyes was measured, and the intraocular pressure was set as the intraocular pressure value before instillation. Thereafter, a test substance or the vehicle was administered by instillation into the treated eyes in an amount of 30 μL each, and intraocular pressure in both eyes was measured about 2, 4, 6, 8, and 24 hours after the administration. The intraocular pressure was measured by a pneumatic applanation tonometer (Model 30 Classic, Reichert, Inc.) under the local anesthesia after instilling 0.4% oxybuprocaine hydrochloride (Benoxil (registered trademark) ophthalmic solution 0.4%, Santen Pharmaceutical Co., Ltd.), which is a local anesthetic. The measurement was performed until a stable value was obtained three times successively (a difference between continuously obtained measured values was within 0.5 mmHg).
The value obtained by subtracting the intraocular pressure value at each measurement time from the intraocular pressure value before test substance and vehicle administration was defined as the intraocular pressure lowering width, and the average value of the intraocular pressure lowering width of each individual at each measurement time was defined as the average intraocular pressure lowering width. The maximum value of the average intraocular pressure lowering width at each measurement time was defined as the maximum intraocular pressure lowering width. In addition, the average intraocular pressure lowering width 24 hours after administration was defined as the intraocular pressure lowering width 24 hours after administration. Meanwhile, in the case where there are two drug names in a group name, it means the order of administration. For example, the Compound A-timolol group means that Compound A was administered first, and timolol was administered thereafter into the same eye.

| Compound | Time after administration exhibiting maximum intraocular pressure lowering action [h] | Intraocular pressure lowering width 24 hours after administration [mmHg] | Maximum intraocular pressure lowering width [mmHg] |
| --- | --- | --- | --- |
| CC(C)OC(=O)CCC[C@H]1CC[C@@H]2[C@@H](/C=C/[C@@H](O)COc3cc(F)ccc3F)[C@H](O)C[C@@H]2OC1 [Compound A-vehicle, 2-propanyl 4-{(3S,5aR,6R,7R,8aS)-6-[(1E,3R)-4-(2,5-difluorophenoxy)-3-hydroxy-1-buten-1-yl]-7-hydroxyoctahydro-2H-cyclopenta[b]oxepin-3-yl}butanoate] | 6 | 3.5 ± 0.75 | 5.8 ± 0.35 |
| CC(C)(C)NC[C@H](O)COc1nsnc1N1CCOCC1 [Vehicle-timolol, timolol] | 2 | 0.0 ± 0.56 | 2.7 ± 0.56 |
